Results on five compounds are retold here after patent publication US20110045092A1, “CASEIN […] ENCAPSULATING […] ACTIVE AGENTS AND USES THEREOF” (priority 2008, published 2011).

Counter-ions that a name gives are not always drawn.

By pKa is commonly meant the pH at which an ionisable group is half protonated. Broadly, the Kd is a measure of binding affinity in units of concentration.

Data set [1] concerns the target T1, β-CN (Bos taurus, UniProt P02666).
T1 construct: β-CN from bovine milk (C6905, purity 90%); purchased Sigma-Aldrich Israel Ltd. C6905; host or cells: bovine milk
T1 sequence (P02666 16-224): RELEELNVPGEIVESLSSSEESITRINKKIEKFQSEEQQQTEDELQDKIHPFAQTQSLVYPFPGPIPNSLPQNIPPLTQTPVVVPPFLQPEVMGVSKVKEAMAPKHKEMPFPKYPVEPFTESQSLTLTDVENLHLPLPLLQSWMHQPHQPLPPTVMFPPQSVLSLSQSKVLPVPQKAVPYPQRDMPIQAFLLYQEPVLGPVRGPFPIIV
The experiment in a line: Trp 143 fluorescence quenching of β-CN by drug. The format is binding, bovine. Conditions: for Kd: Trp 143 of β-CN quenched by drug, 1 mg/ml β-CN in PBS pH 7.0, emission 332 nm, read-out: Calculated Kd. The procedure:
Tryptophan (Trp) Fluorescence:
Trp 143 is located in the main hydrophobic domain of β-CN. Quenching of protein fluorescence due to energy transfer from this Trp residue to a bound ligand serves to determine the binding affinity.
β-CN-drug interaction was studied by monitoring the changes in the Trp fluorescence emission of β-CN upon addition of the drug. Trp fluorescence was determined using an excitation at 287 nm and emission was detected at 332 nm, with slit widths of 1 nm, using the Fluorolog 3-22 spectrofluoreineter. Intrinsic fluorescence of the Trp residues of β-CN was measured before and after addition of different amounts of each drug ranging between drug: β-CN molar ratio of 0.2:1 to 12:1 at 1 mg/ml β-CN. Changes in Trp fluorescence were used to evaluate the binding of the drug to β-CN. The apparent dissociation constant and the number of drug molecules that are involved in binding of one β-CN molecule were calculated from plots of the fluorescence intensity at 332 nm, expressed as the percentage of the fluorescence of the drug-free β-CN vs. the added drug concentration. The data was analyzed using Matlab (MathWorks), by means of the following equations: […]
where F is the fluorescence intensity at a given added ligand (drug) concentration; F0 the fluorescence intensity at the beginning of the titration; F1 the fluorescence at the end of the titration; [PF] the concentration of the free β-CN; [LF] the concentration of the free ligand, drug; [PL] the concentration of the β-CN-drug complex; Kd and Ka are the dissociation and association constants respectively (Christiaenset al. 2002 European Journal of Biochemistry 269 [12]:2918-2926).
Emission spectra of pure 1 mg/ml β-CN vs. those of drug encapsulated in 1mg/ml at 4:1 drug: β-CN molar ratio, were collected at Trp excitation wavelength 287 nm, using the Fluorolog 3-22 spectrofluorometer.

Data set [2] is described as follows: Visual appearance of drug solution with and without β-CN. Format: physicochemical. The text has this: In order to evaluate the visual appearance of the tested drug when encapsulated within the β-CN system as compared to the non-encapsulated drug solubilized at a similar concentration, in PBS and DMSO (i.e. without the addition of β-CN), photographs were taken of both solutions and their appearance was compared.

For data set [3] the following is noted: cited from earlier work.
A further data set in a line: Zeta potential analysis. The format is physicochemical. Particulars: concentration range studied; PBS pH 7.0. The procedure: Particle size distribution, mean Gaussian diameter, and zeta potential were determined by a combined dynamic light scattering (DLS) and zeta potential analyzer (NICOMP 380, Particle Sizing Systems (Agilent Technologies, Inc.), Santa Barbara, Calif., USA) at 25° C.
Zeta potential was measured in PBS solutions without NaCl, under a 3 V/cm e-field, using phase analysis mode. The zeta potential was calculated from the electrophoretic mobility (EM) using the Smoluchowski model (which is a reasonable approximation given that the radius of the particles (a) was around 125 nm, and the ionic strength during the EM measurement was calculated to be about 50 mM, i.e. the Debye length (κ^−1) was around 1.4 nm, so that the product κ^−1a=92>>1).

The target in data set [4] is T1, β-CN. The experiment in a line: Mitoxantrone fluorescence quenching by β-CN. The format is binding, bovine. Conditions: 42 μM mitoxantrone. The procedure: The β-CN-mitoxantrone interaction was further studied by monitoring the changes in the mitoxantrone fluorescence emission upon addition of β-CN. For this purpose a 3-D fluorescence spectra analysis of mitoxantrone was performed using the Fluorolog 3-22. Mitoxantrone fluorescence emission was measured using 609 nm and 675 nm excitation and emission, respectively, and slit widths of 1 nm. Intrinsic fluorescence of 42 μM mitoxantrone was measured before and after addition of different amounts of β-CN. The β-CN concentration range was 0.1-3.8 mg/ml. The apparent dissociation constant and the number of β-CN molecules bound per mitoxantrone molecule were calculated from plots of the fluorescence intensity at 675 nm expressed as the percentage of the fluorescence of the β-CN-free mitoxantrone vs. the added β-CN concentration. Data were analyzed as detailed herein above for Trp quenching.

The mark [5] stands for this setting: 504 μM drug in PBS with 4.55-5.6% DMSO.

As for `CC(=O)O[C@H]1C(=O)[C@@]2(C)[C@H]([C@H](OC(=O)c3ccccc3)[C@]3(O)C[C@H](OC(=O)[C@H](O)[C@@H](NC(=O)c4ccccc4)c4ccccc4)C(C)=C1C3(C)C)[C@]1(OC(C)=O)CO[C@@H]1C[C@@H]2O` [Paclitaxel, paclitaxel], the “change of β-CN Trp-143 emission upon encapsulation” value at β-CN [1] (4:1 Paclitaxel:β-CN, 1 mg/ml β-CN, excitation 287 nm) was “decrease in emission intensity”. In data set [2] (84 μM drug in PBS and 0.8% DMSO), the “visual appearance, without β-CN” value is “turbid, unstable and aggregated system”.
Turning to `CCc1c2c(nc3ccc(OC(=O)N4CCC(N5CCCCC5)CC4)cc13)-c1cc3c(c(=O)n1C2)COC(=O)[C@]3(O)CC` [irinotecan, irinotecan hydrochloride trihydrate], the pKa in data set [3] is 8.1. For the same compound, the “visual appearance, without β-CN” value in data set [2] (setting [5]) was “turbid, unstable and aggregated solution”.
Regarding `CC(=O)O[C@@]12CO[C@@H]1C[C@H](O)[C@@]1(C)C(=O)[C@H](O)C3=C(C)[C@@H](OC(=O)[C@H](O)[C@@H](NC(=O)OC(C)(C)C)c4ccccc4)C[C@@](O)([C@@H](OC(=O)c4ccccc4)[C@H]21)C3(C)C` [Docetaxel, Docetaxel trihydrate], the “zeta potential of drug in PBS without β-CN” value in “Zeta potential analysis” is given as “around −30 mV”. Besides, the “visual appearance, without β-CN” value in data set [2] (setting [5]) is “turbid, unstable and aggregated solution”.
Turning to `O=C1c2c(O)ccc(O)c2C(=O)c2c(NCCNCCO)ccc(NCCNCCO)c21` [mitoxantrone, Mitoxantrone dihydrochloride], the Kd at β-CN [1] (excitation 287 nm, model fit) was 8.43 µM; on β-CN [4] (mitoxantrone fluorescence quenched by β-CN, β-CN 0.1-3.8 mg/ml, excitation 609 nm, emission 675 nm, model fit, read-out: Calculated Kd), 0.726 µM. Besides, the “over-all Trp emission after quenching, of its initial intensity” value on β-CN [1] (plateau at mitoxantrone:β-CN 6:1, 1 mg/ml β-CN) worked out at 20%. For the same compound, the “over-all mitoxantrone emission quenched by β-CN, up to % of its initial intensity” value on β-CN [4] (plateau at 0.7 mg/ml β-CN) was “up to 65%”. Also, the “Log P” value in data set [3] was “higher than 2”.
With vinblastine sulfate salt, the Kd at β-CN [1] (excitation 287 nm, model fit) is 50.9 µM. Moreover, the “n (moles of quencher per moles of fluorophore)” value at β-CN [1] (drug molecules per β-CN molecule, Trp quenching, model fit) was found to be 5.25±0.57. Besides, the “initial overall Trp emission intensity quenched” value on β-CN [1] (vinblastine:β-CN 0.2:1 to 10:1 at 1 mg/ml β-CN) was “About 80%”. In addition, the pKa in data set [3] was 5.5.
